# Laboratory results from patent US11473034B2, “Highly stable and alkaline cleaning solutions and soluble surfactant” (EVONIK OPERATIONS GMBH, priority 2018, dated 2022).
# Test: Foaming properties (automated shake test, foam volume relative to solution and foam volume)
# Type: physicochemical
# Settings: 2 wt % in 45% KOH
# Source text: Determining the Foaming Properties of Surfactants
# Foaming results from surfactants occupying the air/solution interface to stabilize films of solution that encircle air under agitation. Surfactants may produce more or less foam and contribute to higher or lower stability of these foams. This characteristic of a surfactant may be shown by shaking a tube in a controlled, repeatable fashion (generally through the use of automation) and then measuring the volume of foam in the tube relative to the volume of both foam and solution. Numerous examples of variations on this method may be found in scientific literature, such as Amaral, das Neves, J., Oliveira, Â. Z., and Bahia, M. F., “Foamability of Detergent Solutions Prepared with Different Types of Surfactants and Waters”, Journal of Surfactants and Detergents, 11, 275-278 (2008).
# The foaming properties of solutions of Monosodium Cyclohexylamine Dipropionate (Example 1), Monosodium Butyloxypropylamine Dipropionate (Example 2), and 1.5 Sodium Butyloxypropylaminopropylamine Tripropionate (Example 3), prepared as 2 wt % in 45% KOH, were examined. Samples of each solution were shaken vigorously in an automated apparatus to ensure identical treatment of each sample and the volume of foam relative to the total volume of solution and foam was determined.
substance,measurement,setting,value
1.5 Sodium Butyloxypropylaminopropylamine Tripropionate [Example 3],Foam Volume (as Percentage of Solution and Foam Volume),1 Minute,57.5 Percentage of Solution and Foam Volume
same,Foam Volume (as Percentage of Solution and Foam Volume),3 Minutes,53.1 Percentage of Solution and Foam Volume
same,Foam Volume (as Percentage of Solution and Foam Volume),Initial,57.6 Percentage of Solution and Foam Volume
